Source: US11572590B2, “Methods for evaluating tumor cell spheroids using 3D microfluidic cell culture device” (Dana-Farber Cancer Institute, Inc., priority 2017, dated 2023)
Where two headings read alike, the source gives them in different places.

Legend:
Experiment in all cases: SelectScreen Kinase Profiling, single point inhibition and IC50 for off-target kinases
Assay type in all cases: biochemical
off-target kinases [1] = target: off-target kinases (Homo sapiens, UniProt P00533, DEL746-750); design: other: EGFR (ErbB1) d746-750; mutant y; 1000 μM; settings: EGFR (ErbB1) d746-750, mutant y, LanthaScreen Binding
Description: Biochemical single point inhibition and IC50 concentrations for TBK1, IKKε (IKBKE), and off-target kinases were determined at ThermoFisher Scientific using SelectScreen Kinase Profiling Services (Madison, Wis., USA) (Tables S4A and S4B-1-7). To determine cellular potency, the human colorectal cancer carcinoma cell line HCT116 (ATCC, Manassas, Va.) was maintained in T175 flasks in complete RPMI medium; RPMI 1640 supplemented with 10% FBS, 1× Penicillin-Streptomycin solution and 1×MEM (non-essential amino acids). HCT116 cells were grown to 90-95% confluency in T175 flasks containing complete RPMI medium and transfected in bulk using Lipofectamine 2000 (Invitrogen, Carlsbad, Calif.) with 70 μg of ISG54-luciferase reporter plasmid (Elim Biopharmaceuticals Inc., Hayward, Calif.). The reporter plasmid contains a luciferase gene expression cassette under the transcriptional regulation of the promoter of the human interferon stimulated gene 54 (ISG54). […] The assay plates were incubated for 5 hours at 37° C., followed by addition of One-Glo luciferase firefly reagent (Promega, Madison, Wis.) at 1:1 volume/well and luminescence was measured in an EnVision Multilabel Plate Reader (PerkinElmer, Santa Clara, Calif.). The EC50 values were calculated from the fit of the dose-response curves to a four-parameter equation. […]

off-target kinases [2] = target: T1, off-target kinases (Homo sapiens, UniProt O14757); settings: CHEK1 (CHK1), ATP Km app, ZLYTE
T1 sequence (O14757 1-476): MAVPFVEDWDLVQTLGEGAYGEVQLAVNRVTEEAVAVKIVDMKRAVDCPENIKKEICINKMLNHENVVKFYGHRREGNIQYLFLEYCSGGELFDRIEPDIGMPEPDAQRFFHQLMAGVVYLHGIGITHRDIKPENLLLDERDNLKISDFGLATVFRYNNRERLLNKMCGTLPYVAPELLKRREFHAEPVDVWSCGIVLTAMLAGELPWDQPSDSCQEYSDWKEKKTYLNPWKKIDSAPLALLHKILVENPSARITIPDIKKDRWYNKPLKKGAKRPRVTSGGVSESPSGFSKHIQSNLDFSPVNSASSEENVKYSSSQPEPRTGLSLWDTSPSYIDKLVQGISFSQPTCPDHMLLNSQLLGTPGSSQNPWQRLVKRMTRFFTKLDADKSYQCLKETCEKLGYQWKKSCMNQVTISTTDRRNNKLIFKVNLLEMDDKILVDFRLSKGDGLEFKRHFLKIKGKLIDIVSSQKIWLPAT

off-target kinases [3] = target: off-target kinases (Homo sapiens, UniProt P07949, Y791F); settings: RET Y791F, ATP Km app, ZLYTE
Sequence of off-target kinases (Homo sapiens, UniProt P07949, Y791F) (P07949 29-1114 Y791F): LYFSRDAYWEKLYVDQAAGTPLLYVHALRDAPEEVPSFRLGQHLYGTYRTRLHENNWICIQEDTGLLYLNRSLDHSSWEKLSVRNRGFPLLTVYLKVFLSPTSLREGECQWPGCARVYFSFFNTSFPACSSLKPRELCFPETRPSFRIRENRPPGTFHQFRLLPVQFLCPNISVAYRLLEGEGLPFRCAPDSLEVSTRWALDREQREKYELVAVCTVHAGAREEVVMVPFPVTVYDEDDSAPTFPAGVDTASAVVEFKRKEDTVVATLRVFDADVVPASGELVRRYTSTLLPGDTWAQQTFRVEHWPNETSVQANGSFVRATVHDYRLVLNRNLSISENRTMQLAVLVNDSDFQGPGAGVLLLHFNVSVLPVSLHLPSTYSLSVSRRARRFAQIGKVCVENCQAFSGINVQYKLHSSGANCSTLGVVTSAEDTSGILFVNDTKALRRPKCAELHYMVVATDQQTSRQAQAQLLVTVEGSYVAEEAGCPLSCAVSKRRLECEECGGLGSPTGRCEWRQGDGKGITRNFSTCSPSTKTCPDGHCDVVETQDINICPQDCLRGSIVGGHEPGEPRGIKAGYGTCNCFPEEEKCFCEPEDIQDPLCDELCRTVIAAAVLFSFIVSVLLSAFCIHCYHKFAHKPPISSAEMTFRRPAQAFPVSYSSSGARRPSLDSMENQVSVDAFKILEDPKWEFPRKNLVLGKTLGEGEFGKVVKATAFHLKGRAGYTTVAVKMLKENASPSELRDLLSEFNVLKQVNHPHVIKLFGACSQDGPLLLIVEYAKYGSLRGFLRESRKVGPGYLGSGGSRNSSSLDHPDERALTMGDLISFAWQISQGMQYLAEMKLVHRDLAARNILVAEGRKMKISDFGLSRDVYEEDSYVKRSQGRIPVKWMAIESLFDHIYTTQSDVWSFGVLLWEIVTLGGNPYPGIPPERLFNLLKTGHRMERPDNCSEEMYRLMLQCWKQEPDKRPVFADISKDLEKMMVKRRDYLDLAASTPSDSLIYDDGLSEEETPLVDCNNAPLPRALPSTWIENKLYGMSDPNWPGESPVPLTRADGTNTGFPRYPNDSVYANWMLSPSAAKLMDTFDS

off-target kinases [4] = target: off-target kinases (Homo sapiens, UniProt Q9NYA1); settings: SPHK1, Adapta, ATP Km app
Sequence of off-target kinases (Homo sapiens, UniProt Q9NYA1) (Q9NYA1 whole entry): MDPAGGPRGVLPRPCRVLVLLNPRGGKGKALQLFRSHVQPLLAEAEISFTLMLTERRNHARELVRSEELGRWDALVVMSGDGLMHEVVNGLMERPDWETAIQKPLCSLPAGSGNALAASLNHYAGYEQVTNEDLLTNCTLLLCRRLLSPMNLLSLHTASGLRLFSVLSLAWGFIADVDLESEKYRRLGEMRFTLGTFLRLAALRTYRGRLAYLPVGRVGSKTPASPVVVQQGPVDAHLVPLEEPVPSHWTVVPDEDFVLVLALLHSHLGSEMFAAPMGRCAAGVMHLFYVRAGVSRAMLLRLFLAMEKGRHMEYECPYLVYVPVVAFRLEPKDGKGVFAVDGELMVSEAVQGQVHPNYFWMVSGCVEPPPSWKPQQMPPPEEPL

off-target kinases [5] = target: T2, off-target kinases (Homo sapiens, UniProt Q96BR1); settings: SGKL (SGK3), ZLYTE, ATP Km app
T2 sequence (Q96BR1 1-496): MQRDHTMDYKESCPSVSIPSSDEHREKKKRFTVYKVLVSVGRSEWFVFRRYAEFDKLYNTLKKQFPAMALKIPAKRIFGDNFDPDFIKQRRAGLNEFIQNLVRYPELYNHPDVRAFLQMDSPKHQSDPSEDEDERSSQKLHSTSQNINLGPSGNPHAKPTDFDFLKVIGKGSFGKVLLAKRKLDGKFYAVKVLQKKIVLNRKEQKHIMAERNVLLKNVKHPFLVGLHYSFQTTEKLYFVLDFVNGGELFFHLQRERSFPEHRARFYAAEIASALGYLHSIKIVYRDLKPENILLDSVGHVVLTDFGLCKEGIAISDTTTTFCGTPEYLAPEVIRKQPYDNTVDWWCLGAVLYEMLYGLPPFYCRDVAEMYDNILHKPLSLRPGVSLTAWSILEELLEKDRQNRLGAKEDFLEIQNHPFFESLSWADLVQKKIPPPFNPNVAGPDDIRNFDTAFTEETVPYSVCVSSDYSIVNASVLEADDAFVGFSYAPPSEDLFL

off-target kinases [6] = target: off-target kinases (Homo sapiens, UniProt P49761); settings: CLK3, ZLYTE, ATP Km app
Sequence of off-target kinases (Homo sapiens, UniProt P49761) (P49761 whole entry): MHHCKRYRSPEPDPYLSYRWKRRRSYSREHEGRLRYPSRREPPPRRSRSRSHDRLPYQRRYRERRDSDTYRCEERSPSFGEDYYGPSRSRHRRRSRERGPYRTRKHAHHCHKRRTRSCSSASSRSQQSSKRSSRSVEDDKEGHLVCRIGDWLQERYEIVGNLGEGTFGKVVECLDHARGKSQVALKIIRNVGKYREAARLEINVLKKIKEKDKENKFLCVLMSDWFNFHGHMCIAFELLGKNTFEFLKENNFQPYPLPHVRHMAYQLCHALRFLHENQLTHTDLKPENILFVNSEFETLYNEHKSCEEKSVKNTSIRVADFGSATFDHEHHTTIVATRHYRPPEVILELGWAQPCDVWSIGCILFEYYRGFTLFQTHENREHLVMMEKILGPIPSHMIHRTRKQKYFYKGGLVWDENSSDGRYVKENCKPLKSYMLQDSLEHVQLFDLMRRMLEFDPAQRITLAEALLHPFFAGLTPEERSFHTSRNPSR

off-target kinases [7] = target: off-target kinases (Homo sapiens, UniProt Q02779); settings: MAP3K10 (MLK2), LanthaScreen Binding
Sequence of off-target kinases (Homo sapiens, UniProt Q02779) (Q02779 whole entry): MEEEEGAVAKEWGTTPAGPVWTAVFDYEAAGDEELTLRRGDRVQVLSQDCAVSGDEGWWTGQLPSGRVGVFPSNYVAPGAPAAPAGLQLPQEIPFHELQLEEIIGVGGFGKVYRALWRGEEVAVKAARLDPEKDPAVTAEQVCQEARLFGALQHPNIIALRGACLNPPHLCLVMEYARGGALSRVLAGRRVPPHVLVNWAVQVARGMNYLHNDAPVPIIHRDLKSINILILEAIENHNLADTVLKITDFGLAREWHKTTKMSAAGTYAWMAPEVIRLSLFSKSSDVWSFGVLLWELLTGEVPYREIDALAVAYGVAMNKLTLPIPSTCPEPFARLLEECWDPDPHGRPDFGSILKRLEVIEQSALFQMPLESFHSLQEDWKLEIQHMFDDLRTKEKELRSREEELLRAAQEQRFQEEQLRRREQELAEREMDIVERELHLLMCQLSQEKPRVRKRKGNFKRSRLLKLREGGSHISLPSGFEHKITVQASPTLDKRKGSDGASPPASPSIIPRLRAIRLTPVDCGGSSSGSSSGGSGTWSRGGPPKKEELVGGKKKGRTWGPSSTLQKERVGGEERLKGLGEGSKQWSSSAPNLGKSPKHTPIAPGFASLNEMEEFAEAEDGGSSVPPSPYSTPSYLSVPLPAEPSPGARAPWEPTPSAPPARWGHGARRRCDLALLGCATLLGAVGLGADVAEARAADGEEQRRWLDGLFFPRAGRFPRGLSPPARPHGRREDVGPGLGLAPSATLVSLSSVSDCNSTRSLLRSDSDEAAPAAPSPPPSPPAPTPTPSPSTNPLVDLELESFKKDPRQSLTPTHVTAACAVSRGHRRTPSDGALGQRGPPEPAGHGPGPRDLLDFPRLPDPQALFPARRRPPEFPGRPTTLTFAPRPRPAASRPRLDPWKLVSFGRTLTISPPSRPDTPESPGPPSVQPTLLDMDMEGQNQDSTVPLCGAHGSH

off-target kinases [8] = target: off-target kinases (Homo sapiens, UniProt Q9BYP7)
Sequence of off-target kinases (Homo sapiens, UniProt Q9BYP7) (Q9BYP7 whole entry): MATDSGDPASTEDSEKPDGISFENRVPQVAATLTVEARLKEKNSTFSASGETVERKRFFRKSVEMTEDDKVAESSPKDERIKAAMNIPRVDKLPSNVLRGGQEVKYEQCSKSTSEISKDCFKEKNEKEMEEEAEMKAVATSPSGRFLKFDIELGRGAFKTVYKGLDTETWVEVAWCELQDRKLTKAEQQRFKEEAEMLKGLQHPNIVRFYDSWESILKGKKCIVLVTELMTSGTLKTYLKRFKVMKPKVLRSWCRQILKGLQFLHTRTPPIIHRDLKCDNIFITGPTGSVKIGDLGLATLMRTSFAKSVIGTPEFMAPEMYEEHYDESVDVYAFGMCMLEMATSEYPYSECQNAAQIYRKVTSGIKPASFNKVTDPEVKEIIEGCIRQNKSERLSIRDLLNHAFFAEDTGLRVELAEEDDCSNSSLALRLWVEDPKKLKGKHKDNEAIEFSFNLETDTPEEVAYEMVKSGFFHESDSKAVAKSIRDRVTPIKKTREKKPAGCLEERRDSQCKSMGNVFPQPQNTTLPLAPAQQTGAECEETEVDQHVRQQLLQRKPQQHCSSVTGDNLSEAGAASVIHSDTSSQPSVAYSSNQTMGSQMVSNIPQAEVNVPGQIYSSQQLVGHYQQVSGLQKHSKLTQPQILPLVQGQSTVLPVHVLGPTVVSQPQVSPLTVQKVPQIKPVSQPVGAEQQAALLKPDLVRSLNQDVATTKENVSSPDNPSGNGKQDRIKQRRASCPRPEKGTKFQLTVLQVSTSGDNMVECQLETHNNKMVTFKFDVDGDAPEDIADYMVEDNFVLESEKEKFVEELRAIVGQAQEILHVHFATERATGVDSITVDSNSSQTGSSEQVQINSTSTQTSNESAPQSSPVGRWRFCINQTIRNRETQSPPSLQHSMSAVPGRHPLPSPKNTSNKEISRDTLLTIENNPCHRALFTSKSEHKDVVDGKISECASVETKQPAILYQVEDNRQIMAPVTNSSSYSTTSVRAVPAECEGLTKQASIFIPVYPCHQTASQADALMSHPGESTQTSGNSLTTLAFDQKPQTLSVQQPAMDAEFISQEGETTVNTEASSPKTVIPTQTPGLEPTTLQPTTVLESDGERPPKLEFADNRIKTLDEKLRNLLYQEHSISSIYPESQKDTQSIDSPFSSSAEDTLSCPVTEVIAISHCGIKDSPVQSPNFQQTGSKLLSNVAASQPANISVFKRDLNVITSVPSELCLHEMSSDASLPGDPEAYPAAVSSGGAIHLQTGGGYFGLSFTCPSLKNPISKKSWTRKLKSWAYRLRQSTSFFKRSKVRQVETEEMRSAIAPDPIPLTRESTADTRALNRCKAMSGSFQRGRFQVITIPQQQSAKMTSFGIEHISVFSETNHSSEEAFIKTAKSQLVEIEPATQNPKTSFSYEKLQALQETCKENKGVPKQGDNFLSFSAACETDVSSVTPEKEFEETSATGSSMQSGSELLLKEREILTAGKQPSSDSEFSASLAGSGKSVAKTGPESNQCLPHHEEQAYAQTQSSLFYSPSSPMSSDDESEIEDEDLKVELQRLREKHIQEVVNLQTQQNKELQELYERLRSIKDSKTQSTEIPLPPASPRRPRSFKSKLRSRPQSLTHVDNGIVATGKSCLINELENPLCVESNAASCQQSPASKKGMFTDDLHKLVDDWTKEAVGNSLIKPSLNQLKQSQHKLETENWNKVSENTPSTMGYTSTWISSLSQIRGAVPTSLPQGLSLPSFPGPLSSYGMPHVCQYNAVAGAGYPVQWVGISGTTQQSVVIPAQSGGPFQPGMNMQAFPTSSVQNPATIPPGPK

Structure (SMILES): N#Cc1cc(-c2ncnc(Nc3ccc(N4CCN(C5COC5)CC4)cc3)n2)ccc1OC1CCOCC1 [Compound 1, 5-(4-((4-(4-(oxetan-3-yl)piperazin-1-yl)phenyl)amino)-1,3,5-triazin-2-yl)-2-((tetrahydro-2H-pyran-4-yl)oxy)benzonitrile]
- inhibition (off-target kinases [1]; read-out: % Inhibition 1): 14%
- inhibition (off-target kinases [1]; read-out: % Inhibition 2): 13%
- inhibition (off-target kinases [2]; read-out: % Inhibition 1): 78%
- inhibition (off-target kinases [2]; read-out: % Inhibition 2): 78%
- inhibition (off-target kinases [2]; read-out: % Inhibition Avg): 78%
- inhibition (off-target kinases [3]; read-out: % Inhibition 1): 57%
- inhibition (off-target kinases [3]; read-out: % Inhibition 2): 43%
- inhibition (off-target kinases [3]; read-out: % Inhibition Avg): 50%
- inhibition (off-target kinases [4]; read-out: % Inhibition 1): 10%
- inhibition (off-target kinases [4]; read-out: % Inhibition 2): -9%
- inhibition (off-target kinases [4]; read-out: % Inhibition Avg): 0%
- inhibition (off-target kinases [5]; read-out: % Inhibition 1): 3%
- inhibition (off-target kinases [5]; read-out: % Inhibition 2): 4%
- inhibition (off-target kinases [5]; read-out: % Inhibition Avg): 3%
- inhibition (off-target kinases [6]; read-out: % Inhibition 1): 1%
- inhibition (off-target kinases [6]; read-out: % Inhibition 2): 3%
- inhibition (off-target kinases [6]; read-out: % Inhibition Avg): 2%
- inhibition (off-target kinases [7]; read-out: % Inhibition 1): 58%
- inhibition (off-target kinases [7]; read-out: % Inhibition 2): 60%
- inhibition (off-target kinases [7]; read-out: % Inhibition Avg): 59%
- inhibition (off-target kinases [8]; WNK3, LanthaScreen Binding, read-out: % Inhibition 1): -3%
- inhibition (off-target kinases [8]; WNK3, LanthaScreen Binding, read-out: % Inhibition Avg): -2%
- inhibition (off-target kinases [8]; read-out: % Inhibition 2): 0%
